From patent US5059590A, “Imidazole derivatives, process for production thereof, and use thereof” (Yamasa Shoyu Kabushiki Kaisha, priority 1988, dated 1991)
≈ marks a conversion by molar mass, not a printed value.

How the values were obtained:
Format in all cases: cell-based
QG-56 = assay: In vitro anti-proliferative activity against human tumor cell lines (QG-56); conditions: QG-56, Lung squamous carcinoma, 72 hours
Description: (§1) In vitro anti-proliferative activity against human tumor cell lines
(§2) Test Compound: 5-ethynyl-1-β-D-ribofuranosylimidazole-4-carboxamide
(§3) A variety of human tumor cell lines are suspended in media specified according to the species of the cell lines to predetermined cell concentrations as shown in the following Table.
(§4) 1 ml of the resulting cell suspension is seeded into each well of a 24 multi-well plate and incubated in a 5% CO2 -incubator at 37° C. for 24 hours. The culture medium is then replaced by a medium containing no test compound or by an appropriate amount of a serially diluted test compound solution. […] The number of the cells in each well is counted with a Coulter counter (Model ZB, Coulter Electronics), and the growth inhibition percent (%) of the cells at each concentration of a test compound is determined by the following equation: [formula] Tx: Number of the cells in a well containing a test compound as counted upon completion of the incubation (cells/ml) […] Cx: Number of the cells in a well containing no test compound as counted upon completion of the incubation (cells/ml)
(§5) Co: Number of the cells in a well containing no test compound as counted at the initiation of the incubation (cells/ml) […]

PC-3 = assay: In vitro anti-proliferative activity against human tumor cell lines (PC-3); conditions: PC-3, Prostate adenocarcinoma, 72 hours
Description: as §1, §2, §3, §4, §5

mouse sarcoma 180 = assay: In vitro anti-proliferative activity against mouse tumor cell lines, Test Method 2 (sarcoma 180); conditions: Sarcoma 180, 48 hours, 37° C.
Description: In vitro anti-proliferative activity against mouse tumor cell lines
1. Mouse lymphoma cell line P388 or mouse sarcoma 180 is suspended in RPMI1640 medium supplemented with 10% fetal bovine serum and 2 μM 2-hydroxyethyl disulfide to a concentration of 10^5 cells/ml. Test compounds are serially diluted with the same medium.
2. 0.5 ml of the cell suspension thus obtained is admixed with 0.5 ml of the medium or the test compound solution, and the mixture is incubated in a 5% CO2 -incubator at 37° C. for 48 hours. The incubation is carried out in glass culture tubes.
3. At the end of incubation, the number of the cells in each tube is counted with a Coulter counter (Model ZB, Coulter Electronics), and the growth inhibition percent (%) is calculated from the same equation as in Test Method 1.
4. The IC50 value is obtained as in Test Method I.

WiDr = assay: In vitro anti-proliferative activity against human tumor cell lines (WiDr); conditions: Colon adenocarcinoma, 72 hours
Description: as §1, §2, §3, §4, §5

- IC50 (QG-56): 0.37 µg/mL (≈ 1.38 µM)
- IC50 (PC-3): 0.8 µg/mL (≈ 2.99 µM)
- IC50 (mouse sarcoma 180): 0.1 µg/mL (≈ 0.374 µM)
- IC50 (WiDr): 0.46 µg/mL (≈ 1.72 µM)
Structure (SMILES): C#Cc1c(C(N)=O)ncn1[C@@H]1O[C@H](CO)[C@@H](O)[C@H]1O [5-ethynyl-1-β-D-ribofuranosylimidazole-4-carboxamide]
